Measurements from the supplement of paper PMC10307832.

Experiments:
Assay in all cases: relative viability (nuclei count vs DMSO), 5 days (fraction); higher = more cells survive
Bemcentinib = compound: Nc1nc(Nc2ccc3c(c2)CC[C@@H](N2CCCC2)CC3)nn1-c1cc2c(nn1)-c1ccccc1CCC2 [Bemcentinib]
Procedure, shortened: (§1)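 Lung cancer cell lines in 1536-well plates were exposed by pinning to five library-drug doses (not always all listed) √10 apart, following an overnight hold at 37 °C. MetaXpress counted Hoechst-stained nuclei from 4× images taken after 5 days without medium change. Viability is the median ratio of treated-well to vehicle-well nuclei across plates. Plates required control CV below 25% and at least one doubling.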

Pifithrin_alpha = compound: CC1=CC=C(C=C1)C(=O)CN2C3=C(CCCC3)SC2=N [Pifithrin_alpha]
Procedure, shortened: as §1

Axitinib = compound: CNC(=O)c1ccccc1Sc1ccc2c(/C=C/c3ccccn3)n[nH]c2c1 [Axitinib]
Procedure, shortened: as §1

| Cell Line | relative viability (Bemcentinib; 0.04 µM) | relative viability (Bemcentinib; 0.1265 µM) | relative viability (Bemcentinib; 0.4 µM) | relative viability (Bemcentinib; 1.265 µM) | relative viability (Bemcentinib; 4 µM) | relative viability (Pifithrin_alpha; 1 µM) | relative viability (Pifithrin_alpha; 3.162 µM) | relative viability (Pifithrin_alpha; 10 µM) | relative viability (Pifithrin_alpha; 31.62 µM) | relative viability (Pifithrin_alpha; 100 µM) | relative viability (Axitinib; 0.005 µM) | relative viability (Axitinib; 0.01581 µM) | relative viability (Axitinib; 0.05 µM) | relative viability (Axitinib; 0.1581 µM) | relative viability (Axitinib; 0.5 µM) |
| --- | --- | --- | --- | --- | --- | --- | --- | --- | --- | --- | --- | --- | --- | --- | --- |
| NCI-H1563 | 0.993 | 0.961 | 0.971 | 1.14 | 1.05 | 0.999 | 0.996 | 0.981 | 0.957 | 0.895 | 0.999 | 0.887 | 0.973 | 0.924 | 0.891 |
| NCI-H1623 | 0.956 | 0.935 | 0.971 | 1.03 | 0.929 | 0.905 | 0.924 | 0.834 | 0.677 | 0.803 | 1.12 | 0.945 | 0.884 | 1.02 | 0.984 |
| NCI-H1648 | 0.85 | 1.06 | 1.07 | 0.724 | 0.694 | 0.791 | 0.852 | 0.869 | 0.625 | 0.691 | 1.03 | 0.984 | 0.61 | 0.882 | 0.632 |
| NCI-H1650 | 0.783 | 1.01 | 0.974 | 0.978 | 0.861 | 0.889 | 0.811 | 0.787 | 0.607 | 0.813 | 1.07 | 0.805 | 1.05 | 0.822 | 1.15 |
| NCI-H1651 | 1.04 | 1.06 | 1.08 | 1.01 | 1.01 | 1.03 | 0.998 | 0.944 | 0.871 | 0.944 | 0.973 | 0.89 | 0.963 | 0.951 | 1 |
| NCI-H1666 | 0.902 | 1.34 | 1.03 | 1.06 | 0.998 | 1.01 | 0.909 | 0.837 | 0.795 | 0.776 | 1.06 | 0.965 | 0.965 | 1 | 0.977 |
| NCI-H1703 | 0.664 | 0.966 | 0.906 | 0.979 | 0.877 | 0.835 | 0.945 | 0.908 | 0.902 | 0.879 | 0.846 | 0.48 | 0.266 | 0.216 | 0.238 |
| NCI-H1734 | 0.91 | 1.01 | 0.982 | 0.996 | 1.08 | 0.885 | 0.99 | 0.915 | 0.751 | 0.937 | 0.998 | 0.951 | 1.03 | 0.9 | 1.03 |
| NCI-H1755 | 1.06 | 1.05 | 1.02 | 1.05 | 1.08 | 0.919 | 0.964 | 0.882 | 0.841 | 1.05 | 1.02 | 1.01 | 1.05 | 0.992 | 0.997 |
| NCI-H1792 | 0.877 | 1.12 | 1.08 | 0.841 | 0.85 | 0.725 | 0.938 | 0.731 | 0.621 | 0.886 | 0.965 | 0.814 | 0.855 | 0.935 | 0.7 |
| NCI-H1793 | 0.834 | 1.05 | 0.882 | 0.686 | 0.999 | 0.734 | 0.817 | 0.838 | 0.823 | 0.874 | 1.06 | 0.833 | 0.889 | 0.819 | 0.647 |
| NCI-H1915 | 1.01 | 1.1 | 1.05 | 0.947 | 0.958 | 0.887 | 1.03 | 0.737 |  | 1.08 | 1 | 1.07 | 0.982 | 0.99 | 0.999 |
| NCI-H1944 | 0.968 | 1.05 | 0.993 | 0.941 | 0.988 | 0.898 | 0.826 | 0.781 | 0.451 | 0.71 | 1.04 | 0.952 | 1.02 | 0.943 | 0.761 |
| NCI-H1975 | 0.867 | 1.07 | 1 | 0.93 | 0.973 | 0.861 | 0.642 | 0.665 | 0.623 | 0.598 | 1.02 | 0.927 | 0.89 | 0.943 | 0.985 |
| NCI-H1993 | 0.911 | 0.927 | 1.22 | 0.921 | 0.994 | 0.693 | 0.764 | 0.743 | 0.658 | 0.775 | 1.05 | 0.892 | 0.909 | 0.94 | 0.864 |
| NCI-H2009 | 1.02 | 1.04 | 1.04 | 1.03 | 1.05 | 0.96 | 1.01 | 0.974 | 0.65 | 0.878 | 1.01 | 1 | 1.05 | 1.06 | 1.09 |
| NCI-H2023 | 0.975 | 1.08 | 1.14 | 1.08 | 1.13 | 0.924 | 0.846 | 0.902 | 0.461 | 0.686 | 0.984 | 0.972 | 0.945 | 0.936 | 1.13 |

| Cell Line | relative viability (Bemcentinib; 0.04 µM) | relative viability (Bemcentinib; 0.1265 µM) | relative viability (Bemcentinib; 0.4 µM) | relative viability (Bemcentinib; 1.265 µM) | relative viability (Bemcentinib; 4 µM) | relative viability (Pifithrin_alpha; 1 µM) | relative viability (Pifithrin_alpha; 3.162 µM) | relative viability (Pifithrin_alpha; 10 µM) | relative viability (Pifithrin_alpha; 31.62 µM) | relative viability (Pifithrin_alpha; 100 µM) | relative viability (Axitinib; 0.005 µM) | relative viability (Axitinib; 0.01581 µM) | relative viability (Axitinib; 0.05 µM) | relative viability (Axitinib; 0.1581 µM) | relative viability (Axitinib; 0.5 µM) |
| --- | --- | --- | --- | --- | --- | --- | --- | --- | --- | --- | --- | --- | --- | --- | --- |
| NCI-H2085 | 0.964 | 1.03 | 0.994 | 1.02 | 0.993 | 0.892 | 0.973 | 0.947 | 0.897 | 0.959 | 1.02 | 1.05 | 1.03 | 0.998 | 0.998 |
| NCI-H2087 | 1.12 | 1.2 | 1.07 | 0.969 | 1.03 | 0.932 | 1.13 | 1.02 | 0.63 | 0.958 | 0.939 | 1.09 | 0.996 | 1.02 | 0.986 |
| NCI-H2126 | 1 | 1.03 | 1.03 | 1.04 | 1.11 | 0.638 | 0.862 | 0.884 | 0.85 | 0.822 | 0.979 | 0.991 | 0.993 | 1 | 0.953 |
| NCI-H2170 | 1.09 | 1.09 | 0.991 | 0.999 | 0.899 | 0.989 | 1.04 | 0.875 | 0.948 | 0.962 | 1.1 | 0.975 | 1.01 | 0.974 | 1 |
| NCI-H2228 | 0.8 | 1.13 | 1.05 | 0.96 | 1.22 | 0.99 | 1.03 | 0.97 | 0.93 | 1.05 | 1.09 | 0.943 | 1.05 | 1.05 | 1.03 |
| NCI-H2342 | 0.949 | 1.06 | 1.01 | 0.932 | 1.01 | 0.916 | 0.928 | 0.884 | 0.976 | 0.929 | 0.975 | 1.14 | 1.01 | 1.09 | 0.775 |
| NCI-H2347 | 0.953 | 1.17 | 1.06 | 0.956 | 1.04 | 0.954 | 1.03 | 1.07 | 0.744 | 1.03 | 0.983 | 0.959 | 1.09 | 1.06 | 0.951 |
| NCI-H2405 | 0.944 | 1.03 | 1.01 | 1 | 1.08 | 0.733 | 0.962 | 0.904 | 0.876 | 0.921 | 1 | 1.04 | 1.14 | 0.973 | 0.95 |
| NCI-H3122 |  | 1.06 | 0.977 | 1.06 | 1.06 | 0.982 | 0.999 | 0.965 | 0.745 | 1.02 | 0.973 | 0.985 | 1.02 | 1.02 | 1.11 |
| PC-3 [JPC-3] | 0.978 | 1.06 | 1.12 | 1.05 | 1.06 | 0.73 | 1.03 | 0.934 | 0.949 | 0.932 | 1.08 |  | 1.1 | 1.03 | 1.2 |
| PC-14 | 1.02 | 1.15 | 1.1 | 1.02 | 1.02 | 0.866 | 1.02 | 0.949 | 0.625 | 0.842 | 1.05 | 0.808 | 1.09 | 0.951 | 1.13 |
| RERF-LC-KJ | 1.07 | 1.04 | 1.11 | 1.07 | 1.06 | 0.873 | 0.935 | 0.858 | 0.81 | 0.795 | 1.07 | 0.991 | 1.01 | 0.984 | 1.04 |
| SK-LU-1 | 1.04 | 1.19 | 1.13 | 1.08 | 1.12 | 1.08 | 1.16 | 1.21 | 0.805 | 1.21 | 1.06 | 1.12 | 0.946 | 1.04 | 1.15 |
| SK-MES-1 | 1.03 | 1.09 | 1.07 | 1.11 | 1.11 | 0.893 | 0.927 | 0.901 | 0.726 | 0.815 | 1.03 | 0.998 | 1.01 | 0.976 | 1.06 |
| SW 900 | 0.772 | 0.97 | 0.913 | 0.742 | 0.871 | 0.706 | 0.643 | 0.75 | 0.648 | 0.653 | 0.929 | 0.584 | 0.724 | 0.92 | 1.01 |
| SW 1573 | 0.912 | 1.06 | 1.1 | 0.921 | 0.968 | 1.04 | 1.01 | 1.09 | 0.787 | 0.981 | 0.982 | 1 | 1.09 | 0.867 | 1.08 |
| UMC-11 | 0.982 | 1.13 | 1.08 | 0.871 | 0.995 | 0.965 | 0.949 | 1.04 | 0.907 | 1.23 | 1.03 | 0.943 | 0.956 | 0.935 | 0.899 |
